Results from US20210113692A1, “DOSING REGIMEN” (IMCLONE, LLC, priority 2016, published 2021).
Where “and” joins values, the source holds several entries; their conditions need not be identical. Equal entries are not always repeated. Entries after “also recorded” stand apart in the source; their conditions may differ. Where two headings read alike, the source gives them in different places.

What was measured:
[1] = test system: patients with advanced STS; assay: Matched case-control exposure-response analysis of OS and PFS across quartiles of olaratumab serum levels; type: in vivo, human
Protocol: (§1) Pharmacokinetics and Exposure-response Analysis of The “Study”: The PFS, OS, PK and safety data from patients who received olaratumab in the Study, as discussed above, were analyzed.
(§2) The effect of olaratumab serum levels is explored using average serum concentration (Cavg) and trough serum concentration after cycle 1 (Cmin1). The PFS and OS data are analyzed using a matched case-control (MCC) analysis across quartiles of olaratumab serum levels and a time-to-event (survival) model with a constant baseline hazard and a Hill function to describe the effect of olaratumab. The rate of treatment-emergent adverse events (TEAEs) is compared across quartiles of olaratumab exposure.

[2] = design: species or system human; details: in vivo
From the text: The rate of treatment-emergent adverse events (TEAEs) is compared across quartiles of olaratumab exposure.

[3] = test system: patients with advanced STS; assay: Randomized Phase 2 Study of doxorubicin with or without olaratumab (NCT01185964): PFS, OS, ORR; type: in vivo, human; details: for median OS / median PFS: Phase 2 Study
Protocol: The Study is an open-label, multicenter, Phase 2 trial in which patients with advanced STS not amenable to treatment with surgery or radiotherapy are treated with olaratumab in combination with doxorubicin or doxorubicin alone.
Enrolled patients who meet all eligibility criteria are randomized 1:1 to one of two treatment arms. Arm A or Arm B. Arm A patients receive olaratumab in combination with doxorubicin (hereinafter the “Combination Arm”) and Ann B patients receive doxorubicin alone (hereinafter the “Doxonthicin Arm”), Randomization of this Study is performed according to a dynamic randomization algorithm using 4 pre-defined risk factors: PDGFRα expression (positive vs. negative), number of previous lines of treatment (0 vs. 1+ lines), histological tumor type (i.e., leiomyosarcoma vs. synovial sarcoma vs. other tumor type), and ECOG performance status (0-1 vs. 2). This dynamic randomization procedure is used to minimize imbalance between treatment groups. To determine tumor type and PDGFRCL expression in patients, a tumor sample from either a biopsy or previously archived tumor tissue sample is sufficient. Biopsy is required to be performed within 21 days prior to randomization; archived tissue sample must also be available within this timeframe.
Combination Arm: 66 patients randomized in the Combination Ann receive 15 mg/kg of olaratumab on Days 1 and 8 of each 21-day treatment cycle, in combination with 75 mg/m^2 doxorubicin administered on Day 1 of each cycle. (Note: if premedication is required prior to the first doxorubicin infusion, this is to be done after the completion of olaratumab infusion, not before the olaratumab infusion. This premedication may be administered within the hour that follows completion of the olaratumab infusion.) The actual (not planned) administration of each doxorubicin infusion defines Day 1 of each 21-day treatment cycle. The combination treatment just described is to continue for up to 8 cycles at the investigator's discretion. During Cycles 5 through 8, patients being treated with doxorubicin may also be administered 750 mg/m^2 dexrazoxane on Day 1 of each cycle, (at the investigator's discretion) prior to doxorubicin on Day 1 of each 21-day cycle. If the dose of doxorubicin is reduced at any point in the Study, the dose of dexrazoxane is to be reduced accordingly, maintaining a dosage ratio of 10:1. For example, if doxorubicin is reduced to 60 mg/m^2, then dexrazoxane is to be reduced to 600 mg/m^2. Doxorubicin may be administered within the hour that follows completion of the olaratumab infusion. In the absence of PD or other withdrawal criteria, patients in the Combination Arm who have completed eight cycles of therapy are to receive subsequent olaratumab monotherapy, administered on Days 1 and 8 of each 21-day cycle. Furthermore, if doxorubicin is discontinued (e.g., for reasons of toxicity) prior to end of cycle 8 and in the absence of withdrawal criteria, patients may continue to receive olaratumab monotherapy. For patients who discontinue olaratumab during the first 8 cycles of treatment, doxorubicin may be continued (for up to 8 cycles), provided no withdrawal criteria are met.
Doxorubicin Arm: 67 patients randomized in the Doxorubicin Arm receive 75 mg/m^2 doxorubicin on Day 1 of each cycle, for up to 8 cycles at the investigator's discretion. The actual (not planned) administration of each doxorubicin infusion defines Day 1 of each 21-day treatment cycle. During cycles 5 through 8, 750 mg/m^2 dexrazoxane may also be administered on Day 1 of each cycle, (at the investigator's discretion) prior to doxorubicin on Day 1 of each 21-day cycle. If the dose of doxorubicin is reduced at any point in the Study, the dose of dexrazoxane is to be reduced accordingly, maintaining a dosage ratio of 10:1. For example, if doxorubicin is reduced to 60 mg/m^2, then dexrazoxane is to be reduced to 600 mg/m^2. […]

[4] = Olaratumab serum concentrations (pharmacokinetics) in the Study
Protocol: Serum levels can be measured by an enzyme-linked immunosorbent assay; a test that uses antibodies and color change to identify and quantify a substance.
as §1, §2

[5] = Population PK (PopPK) model using PK data from 4 Phase 2 studies; type: in vivo, human; details: irrespective of indication
From the text: • Population Pharmacokinetics Analysis of the Four Phase 2 Clinical Studies: A population PK (PopPK) model was developed using PK data from 4 Phase 2 studies (www.clinicaltrials.gov study numbers NCT00918203 (A Randomized Phase 2 Study of Human Anti-PDGFRα. Monoclonal Antibody (IMC-3G3) With Paclitaxel/Carboplatin or Paclitaxel/Carboplatin Alone in Previously Untreated Patients With Locally Advanced or Metastatic Non-Small Cell Lung Cancer), NCT01185964 (A Phase 1b/2 Randomized Phase 2 Study Evaluating the Efficacy of Doxorubicin With or Without a Human Anti-PDGFRα Monoclonal Antibody (IMC-3G3) in the Treatment of Advanced Soft Tissue Sarcoma), NCT00895180 (An Open Label, Phase 2 Study Evaluating the Safety and Efficacy of IMC-3G3 or MC-1121B in Patients With Recurrent Glioblastoma Multiforme), and NCT01316263 (A Phase 2 Study of a Human Anti-PDGFRα Monoclonal Antibody (IMC-3G3) in Previously Treated Patients With Unresectable and/or Metastatic Gastrointestinal Stromal Tumors (GIST)). […] A Randomized, Double Blind, Placebo-Controlled, Phase 3 Trial of Doxorubicin Plus Olaratumab Versus Doxorubicin Plus Placebo in Patients With Advanced Soft Tissue Sarcoma (the “Phase 3 Study”) The present invention is being further tested in the Phase 3 Study (trial number NCT02451943 available on clinicaltrials.gov https://clinicaltrials.gov/ct2/show/NCT02451943?term=ANNOUNCE&rank=1).

[6] = test system: patients with advanced STS; assay: Time-to-event (survival) model of the effect of olaratumab serum levels on PFS/OS hazard; type: in vivo, human; details: Cmin1-based and Cavg-based models
From the text: Further, FIG. 1, illustrates the predicted effect of olaratumab on HR for PFS. In FIG. 1. PFS as predicted by Cmin1-based model is shown in the left panel and the Cavg-based model is shown in the right panel. The solid red lines describe the change in HR as a function of Cmin1 and Cavg; the grey histograms describe the distribution of olaratumab Cmin1 and Cavg in the Study experimental arm together with their quartiles (dashed blue lines) the green dashed lines indicate ECmin150 and ECavg50.

[7] = Cavg Q1 (56 < 134.4) μg/mL, 15 patients per group
[8] = Cavg Q3 (≥175.2-<249.9) μg/mL, 15 patients per group
[9] = Cavg Q4 (≥249.9-347.3) μg/mL, 16 patients per group
[10] = Cmin1 Q1 (12.3-<62.8) μg/mL, 15 patients per group
[11] = Cmin1 Q2 (≥62.8-<86.9) μg/mL, 16 patients per group
[12] = Cmin1 Q4 (≥105.6-188.1) μg/mL, 16 patients per group

COc1cccc2c1C(=O)c1c(O)c3c(c(O)c1C2=O)C[C@@](O)(C(=O)CO)C[C@@H]3O[C@H]1C[C@H](N)[C@H](O)[C@H](C)O1 [doxorubicin]
Number of events, overall survival [1, 7]: 15/13
Number of events, progression-free survival [1, 7]: 15/14
Number of events, progression-free survival ([1]; Cavg Q2 (≥134.4-<175,2) μg/mL, 16 patients per group): 16/10
Number of events, overall survival ([1]; Cavg Q2 (≥134.4-<175.2) μg/mL, 16 patients per group): 16/14
Number of events, overall survival [1, 8]: 15/7
Number of events, progression-free survival [1, 8]: 15/8
Number of events, overall survival [1, 9]: 16/11
Number of events, progression-free survival [1, 9]: 16/12
Number of events, overall survival [1, 10]: 15/12
Number of events, progression-free survival [1, 10]: 15/11
Number of events, overall survival [1, 11]: 16/13
Number of events, progression-free survival [1, 11]: 16/9
Number of events, overall survival ([1]; Cmin1 Q3 (≥86.9-<105.6) μg/mL, 15 patients per group): 15/8
Number of events, progression-free survival ([1]; Cmin1 Q3 (≥86.9=<105.6) μg/mL, 15 patients per group): 15/10
Number of events, overall survival [1, 12]: 16/10
Number of events, progression-free survival [1, 12]: 16/11
Mucositis Grade <=2 (consolidated TEAE), number of patients ([2]; human): 20
Mucositis Grade <=2, % (consolidated TEAE) ([2]; human): (30.8) %
Mucositis Grade >2 (consolidated TEAE), number of patients ([2]; human): 3
Mucositis Grade >2, % (consolidated TEAE) ([2]; human): (4.6) %
Mucositis Grade >=4 (consolidated TEAE), number of patients ([2]; human): 0
Neutropenia Grade <=2 (consolidated TEAE), number of patients ([2]; human): 3
Neutropenia Grade <=2, % (consolidated TEAE) ([2]; human): (4.6) %
Neutropenia Grade >2 (consolidated TEAE), number of patients ([2]; human): 22
Neutropenia Grade >2, % (consolidated TEAE) ([2]; human): (33.8) %
Neutropenia Grade >=4 (consolidated TEAE), number of patients ([2]; human): 17
Neutropenia Grade >=4, % (consolidated TEAE) ([2]; human): (26.2) %
TEAE Overall Grade <=2, % ([2]; human): (29.2) %
TEAE Overall Grade <=2, number of patients ([2]; human): 19
TEAE Overall Grade >2, % ([2]; human): (69.2) %
TEAE Overall Grade >2, number of patients ([2]; human): 45
TEAE Overall Grade >=4, % ([2]; human): (30.8) %
TEAE Overall Grade >=4, number of patients ([2]; human): 20
median OS ([3]; final analysis): 14.7 months
median PFS ([3]; final analysis): 4.1 months
median progression-free survival, blinded independent retrospective review ([3]; in vivo): 4.4 months
objective response rate, independent assessment ([3]; in vivo): 7.5%
objective response rate ([3]; investigator assessment, RECIST 1.1): 11.9%

olaratumab
OS improvement in the lowest exposure quartile ([1]; Cmin1<63 μg/mL, N=15): no improvement in OS; also recorded: did not show OS improvement; also recorded: did not have OS
PFS and OS improvement in the upper quartiles of olaratumab serum exposure ([1]; regardless of Cmin at end of cycle 1 or average serum concentration): greater improvement in progression-free survival and overall survival
mean maximum serum concentration (Cmax) after the first dose ([4]; 15 mg/kg, cycle 1): 284 µg/mL
mean maximum serum concentration (Cmax) after the second dose ([4]; 15 mg/kg, cycle 1): 293 µg/mL
Cavg range ([4]; Overall, n = 62, average over entire treatment): 56.0 to 347.3 µg/mL
Cmin1 range ([4]; Overall, n = 62, trough at the end of Cycle 1): 12.3 to 188.1 µg/mL
mean trough serum concentration (Cmin) at the end of the cycle ([4]; cycle 1): 66.5 µg/mL
individual apparent terminal elimination half-life ([4]; during cycle 3): 6.67 days and 14.4 days
cycle in which steady state is reached ([4]; in vivo): 3 cycle
Mucositis Grade <=2 (consolidated TEAE), number of patients [2]: 32
Mucositis Grade <=2, % (consolidated TEAE) [2]: (51.6) %
Mucositis Grade >2 (consolidated TEAE), number of patients [2]: 2
Mucositis Grade >2, % (consolidated TEAE) [2]: (3.2) %
Mucositis Grade >=4 (consolidated TEAE), number of patients [2]: 0
Neutropenia Grade <=2 (consolidated TEAE), number of patients [2]: 3
Neutropenia Grade <=2, % (consolidated TEAE) [2]: (4.8) %
Neutropenia Grade >2 (consolidated TEAE), number of patients [2]: 35
Neutropenia Grade >2, % (consolidated TEAE) [2]: (56.5) %
Neutropenia Grade >=4 (consolidated TEAE), number of patients [2]: 23
Neutropenia Grade >=4, % (consolidated TEAE) [2]: (37.1) %
TEAE Overall Grade <=2, % [2]: (19.4) %
TEAE Overall Grade <=2, number of patients [2]: 12
TEAE Overall Grade >2, % [2]: (79.0) %
TEAE Overall Grade >2, number of patients [2]: 49
TEAE Overall Grade >=4, % [2]: (40.3) %
TEAE Overall Grade >=4, number of patients [2]: 25
cycle in which steady-state olaratumab serum levels are achieved (PopPK model) [5]: ≥ 3 Cycle
predicted effect of olaratumab on HR for PFS (FIG. 1) [6]: not predicted to change until the Cmin1 or Cavg reaches values corresponding to the 25th percentile of their distribution in the study
stratified HR for overall survival ([3]; Combination Arm vs Doxorubicin Arm, final analysis): 0.46
median OS ([3]; final analysis): 26.5 months
median PFS ([3]; final analysis): 6.6 months
stratified HR for progression-free survival ([3]; olaratumab plus doxorubicin vs doxorubicin, final analysis): 0.672
